Test results from ChEMBL document CHEMBL5370609, “Amidine-Based Cationic Conjugated Oligoelectrolytes with Antimicrobial Activity against Pseudomonas aeruginosa Biofilms” (J Med Chem, 2023).
The source made the active and inactive calls. The rule behind the calls is not given here.

Legend:
[1] = tested on: Escherichia coli; experiment: Antibacterial activity against Escherichia coli ATCC 25922 assessed as inhibition of bacterial growth incubated for overnight by broth microdilution method; format: functional
[2] = tested on: Staphylococcus aureus; experiment: Antibacterial activity against Staphylococcus aureus ATCC 29213 assessed as inhibition of bacterial growth incubated overnight by broth microdilution method; format: functional
[3] = tested on: Klebsiella pneumoniae; experiment: Antibacterial activity against Klebsiella pneumoniae ATCC 700603 assessed as inhibition of bacterial growth incubated overnight by broth microdilution method; format: functional
[4] = tested on: Pseudomonas aeruginosa; experiment: Antibacterial activity against Pseudomonas aeruginosa ATCC 27853 assessed as inhibition of bacterial growth incubated overnight by broth microdilution method; format: functional
[5] = Cytotoxicity against human HepG2 cells assessed as reduction in cell viability incubated for 24 hrs by MTT assay; format: toxicity, cell-based
[6] = Selectivity index, IC50 for cytotoxicity against human HepG2 cells to MIC for antibacterial activity against Pseudomonas aeruginosa ATCC 27853 assessed as inhibition of bacterial growth; format: toxicity, cell-based; conditions: read-out: Selectivity Index
[7] = tested on: Pseudomonas aeruginosa; experiment: Inhibition of biofilm formation in Pseudomonas aeruginosa PAO1 at below MIC incubated for 24 hrs by crystal violet staining based analysis; format: functional, organism-based
[8] = tested on: Pseudomonas aeruginosa; experiment: Inhibition of biofilm formation in Pseudomonas aeruginosa PAO1 incubated for 24 hrs by crystal violet staining based analysis; format: functional
[9] = tested on: Pseudomonas aeruginosa; experiment: Antibiofilm activity against preformed biofilm in Pseudomonas aeruginosa PAO1 assessed as reduction in biofilm viability upto 1024 ug/ml incubated for 24 hrs by BacTiter Glo reagent based luminescence analysis; format: functional, organism-based; conditions: dose <= 1024.0 µg/ml
[10] = tested on: HEK293; experiment: Cytotoxicity against HEK293 cells assessed as reduction in cell viability incubated for 24 hrs by CellTiter-Glo reagent based luminescence assay; format: toxicity; conditions: human, hek293, 24 h
[11] = tested on: NIH3T3; experiment: Cytotoxicity against mouse 3T3 cells assessed as reduction in cell viability incubated for 24 hrs by CellTiter-Glo reagent based luminescence assay; format: toxicity; conditions: nih3t3, 24 h
[12] = Hemolytic activity in human blood assessed as hemolysis at 492 ug/ml incubated for 45 mins by absorbance based plate reader analysis relative to control; format: toxicity, tissue-based; conditions: at 492 µg/mL, read-out: Activity
[13] = Dissociation constant, pKa of compound at pH 7.4 by potentiometric titration method; format: physicochemical
[14] = tested on: Pseudomonas aeruginosa; experiment: Antibacterial activity against Pseudomonas aeruginosa PAO1 assessed as inhibition of bacterial growth incubated overnight by broth microdilution method; format: functional
[15] = tested on: Pseudomonas aeruginosa; experiment: Bactericidal activity against Pseudomonas aeruginosa PAO1 assessed as reduction in colony forming units at 4 times of MIC incubated for 1 hrs by time-kill kinetics assay relative to control; format: functional; design: scale not given: the % may be the effect or the level left
[16] = tested on: Pseudomonas aeruginosa; experiment: Bactericidal activity against Pseudomonas aeruginosa PAO1 assessed as log reduction in colony forming units at 4 times of MIC incubated for 1 hrs by time-kill kinetics assay; format: functional
[17] = tested on: Pseudomonas aeruginosa; experiment: Bactericidal activity against Pseudomonas aeruginosa PAO1 assessed as reduction in viable bacteria at 4 times of MIC measured at 8 to 48 hrs by time-kill kinetics assay; format: functional, organism-based; conditions: time 8-48 hrs
[18] = tested on: Pseudomonas aeruginosa; experiment: Bactericidal activity against Pseudomonas aeruginosa PAO1 assessed as bacterial eradication at 8 times of MIC measured at 8 hrs by time-kill kinetics assay relative to control; format: functional
[19] = tested on: Pseudomonas aeruginosa; experiment: Bactericidal activity against Pseudomonas aeruginosa PAO1 assessed as reduction in bacterial growth at 8 times of MIC measured after 48 hrs by time-kill kinetics assay; format: functional, organism-based
[20] = tested on: Pseudomonas aeruginosa; experiment: Induction of resistance development in Pseudomonas aeruginosa PAO1 assessed as fold increase in MIC measured after consecutive passages for 21 days by serial passaging assay relative to day 1 MIC; format: functional; conditions: time 21 day
[21] = tested on: Pseudomonas aeruginosa; experiment: Induction of spontaneous resistance development in Pseudomonas aeruginosa PAO1 assessed as frequency of resistance at 2 to 4 times of MIC incubated for 48 hrs by FoR assay; format: functional
[22] = tested on: Pseudomonas aeruginosa; experiment: Inhibition of biofilm formation in Pseudomonas aeruginosa PAO1 at below MIC incubated for 24 hrs by crystal violet staining based analysis relative to control; format: functional
[23] = tested on: Pseudomonas aeruginosa; experiment: Antibiofilm activity against preformed biofilm in Pseudomonas aeruginosa PAO1 assessed as biofilm killing at 128 ug/ml incubated for 24 hrs by BacTiter Glo reagent based luminescence analysis; format: functional, organism-based; conditions: dose 128.0 µg/ml
[24] = tested on: Pseudomonas aeruginosa; experiment: Antibiofilm activity in Pseudomonas aeruginosa PAO1 assessed as eradication of preformed biofilm at 256 ug/ml incubated for 24 hr by BacTiter Glo reagent based luminescence analysis; format: functional, organism-based; conditions: dose 256.0 µg/ml
[25] = tested on: Pseudomonas aeruginosa; experiment: Antibacterial activity against Pseudomonas aeruginosa PAO1 infected in C57BL/6 mouse wound model assessed as reduction in bacterial count on wound bed pre-infected with bacteria for 4 hrs followed by topical administration of compounds for 20 hrs and measured 24 hrs post infection; format: functional, organism-based; conditions: dose 0.1-2 %
[26] = tested on: Pseudomonas aeruginosa; experiment: Antibacterial activity against Pseudomonas aeruginosa PAO1 infected in C57BL/6 mouse wound model assessed as log reduction in colony forming unit on wound bed at 0.5 % w/v pre-infected with bacteria for 4 hrs followed by topical administration of compounds for 20 hrs and measured 24 hrs post infection; format: functional
[27] = tested on: Pseudomonas aeruginosa; experiment: Antibacterial activity against Pseudomonas aeruginosa PAO1 infected in C57BL/6 mouse wound model assessed as log reduction in colony forming unit on wound bed at 2 % w/v pre-infected with bacteria for 4 hrs followed by topical administration of compounds for 20 hrs and measured 24 hrs post infection; format: functional
[28] = tested on: Pseudomonas aeruginosa; experiment: Antibacterial activity against Pseudomonas aeruginosa PAO1 infected in C57BL/6 mouse wound model assessed as reduction in bacterial count on wound bed at 2 to 8 % w/v pre-infected with bacteria for 24 hrs followed by topical administration of compounds for 24 hrs; format: functional, organism-based; conditions: dose 2-8 %

C(=C\c1cc(OCCCNC2=NCCC2)cc(OCCCNC2=NCCC2)c1)/c1ccc(/C=C/c2cc(OCCCNC3=NCCC3)cc(OCCCNC3=NCCC3)c2)cc1.CC(=O)O.CC(=O)O.CC(=O)O.CC(=O)O
MIC [1]: 2 µg/mL | MIC [2]: 1 µg/mL | MIC [3]: 16 µg/mL | MIC [4]: 16 µg/mL | IC50 at 24 h [5]: 1020 µg/mL | selectivity ratio [6]: 64

CC(=O)O.CC(=O)O.CC(=O)O.CC(=O)O.CCC(=N)NCCCOc1cc(/C=C/c2ccc(/C=C/c3cc(OCCCNC(=N)CC)cc(OCCCNC(=N)CC)c3)cc2)cc(OCCCNC(=N)CC)c1
MIC [1]: 1 µg/mL | MIC [2]: 1 µg/mL | MIC [3]: 8 µg/mL | MIC [4]: 8 µg/mL | IC50 at 24 h [5]: 1020 µg/mL | selectivity ratio [6]: 128

CC(=O)O.CC(=O)O.CC(=O)O.CC(=O)O.CCCN(CCCOc1cc(/C=C/c2ccc(/C=C/c3cc(OCCCN(CCC)C(=N)C4CC4)cc(OCCCN(CCC)C(=N)C4CC4)c3)cc2)cc(OCCCN(CCC)C(=N)C2CC2)c1)C(=N)C1CC1
MIC [2]: 1 µg/mL | IC50 at 24 h [5]: 16 µg/mL | selectivity ratio [6]: 0.5

CC(=O)O.CC(=O)O.CC(=O)O.CC(=O)O.N=C(CC1CC1)NCCCOc1cc(/C=C/c2ccc(/C=C/c3cc(OCCCNC(=N)CC4CC4)cc(OCCCNC(=N)CC4CC4)c3)cc2)cc(OCCCNC(=N)CC2CC2)c1
MIC [1]: 2 µg/mL | MIC [2]: 1 µg/mL | MIC [3]: 4 µg/mL | MIC [4]: 8 µg/mL | IC50 at 24 h [5]: 256 µg/mL | selectivity ratio [6]: 32

O=C(O)c1cn(C2CC2)c2cc(N3CCNCC3)c(F)cc2c1=O [CIPROFLOXACIN]
inhibition [7]: inactive | MBIC50 [8]: 2 µg/mL | MBIC90 [8]: 2 µg/mL | Activity [9]: inactive

CC(=O)O.CC(=O)O.CC(=O)O.CC(=O)O.N=C(NCCCOc1cc(/C=C/c2ccc(/C=C/c3cc(OCCCNC(=N)C4CC4)cc(OCCCNC(=N)C4CC4)c3)cc2)cc(OCCCNC(=N)C2CC2)c1)C1CC1
MIC [2]: 0.5 µg/mL | IC50 at 24 h [5]: 1020 µg/mL | selectivity ratio [6]: 512 | Activity [10]: Non-Toxic | Activity [11]: Non-Toxic | hemolysis at 0.75 h, 492 ug/ml [12]: 0.2% | pKa [13]: 10 | MIC [14]: 8 µg/mL | Activity [15]: 99.9% | log(activity) [16]: 3 | Activity [17]: inactive | Activity [18]: 100% | Activity [19]: Active | fold change (FC) [20]: 4 | Activity [21]: <1.3 10^-8No_unit | inhibition (INH) [22]: ~31% | MBIC50 [8]: 1 µg/mL | MBIC90 [8]: 4 µg/mL | Activity [23]: Active | Activity [24]: Active | Activity [25]: Dose-Dependent Effect | log(activity) [26]: 1.5 | log(activity) [27]: 2.8 | Activity [28]: Active

CC(=O)O.CC(=O)O.CC(=O)O.CC(=O)O.CCCN(CCCOc1cc(/C=C/c2ccc(/C=C/c3cc(OCCCN(CCC)C(=N)CC)cc(OCCCN(CCC)C(=N)CC)c3)cc2)cc(OCCCN(CCC)C(=N)CC)c1)C(=N)CC
MIC [1]: 2 µg/mL | MIC [2]: 1 µg/mL | MIC [3]: 8 µg/mL | MIC [4]: 16 µg/mL | IC50 at 24 h [5]: 32 µg/mL | selectivity ratio [6]: 2

CC(=O)O.CC(=O)O.CC(=O)O.CC(=O)O.CCC(=N)N(C)CCCOc1cc(/C=C/c2ccc(/C=C/c3cc(OCCCN(C)C(=N)CC)cc(OCCCN(C)C(=N)CC)c3)cc2)cc(OCCCN(C)C(=N)CC)c1
MIC [1]: 1 µg/mL | MIC [2]: 1 µg/mL | MIC [3]: 16 µg/mL | MIC [4]: 8 µg/mL | IC50 at 24 h [5]: > 1020 µg/mL | selectivity ratio [6]: > 128
